Source: patent publication US9857359B2, “Methods for determining drug efficacy using cereblon-associated proteins” (CELGENE CORPORATION, priority 2012, dated 2018)

Assays:
[1] = tested on: Aiolos peptide containing lysine 203; assay: UbiScan mass spectrometry of ubiquitylated proteins in multiple myeloma cells; format: cell-based
Excerpt: Mass spectrometry of ubiquitylated proteins (Ubiscan™): Cell Signaling Technology's UbiScan™ proteomics platform was used to identify and quantify differences in ubiquitination in primary human T cells untreated (Treatment 1) or treated with Treatment 2 or Treatment 3, and in MM cell lines treated with immunomodulatory compounds in the presence or absence of the proteasome inhibitor MG132. The UbiScan™ method combines the isolation of ubiquitinated peptides from protease digested protein extracts using CST's proprietary immunoaffinity purification method with the identification and quantitation of peptides by liquid chromatography, tandem mass spectrometry (LC-MS/MS). The quantification of ubiquitination is based on the abundance of the ubiquitinated peptides recovered by antibody immunoprecipitation. The abundance or intensity information for each ubiquitinated peptide is based on the peak height of that peptide measured in the MS1 channel. The confidence in the calculated fold change is dependent on a number of factors, an important one being the intensity or peak height of the ubiquitinated peptide. Samples were analyzed by LC-MS/MS on an ORBITRAP VELOS™ mass spectrometer. […] Label-free quantitation was performed by comparing peak intensities of the same peptide ion in each sample to generate their corresponding fold-changes. […]

Aiolos [2] = assay: Aiolos regulation in cells with low or lost CRBN expression; format: cell-based; settings: loss of CRBN protein
Ikaros = Ikaros (Homo sapiens, UniProt Q13422); assay: Ikaros in siCRBN transfected primary CD3+ T cells; format: cell-based; set-up: endogenous in cells; host or cells: U266, DF15 (and other MM lines), primary CD3+ T cells, primary CD19+ B cells; settings: siCRBN vs siControl, 6/24 hours
Chain of Ikaros (Q13422 whole entry): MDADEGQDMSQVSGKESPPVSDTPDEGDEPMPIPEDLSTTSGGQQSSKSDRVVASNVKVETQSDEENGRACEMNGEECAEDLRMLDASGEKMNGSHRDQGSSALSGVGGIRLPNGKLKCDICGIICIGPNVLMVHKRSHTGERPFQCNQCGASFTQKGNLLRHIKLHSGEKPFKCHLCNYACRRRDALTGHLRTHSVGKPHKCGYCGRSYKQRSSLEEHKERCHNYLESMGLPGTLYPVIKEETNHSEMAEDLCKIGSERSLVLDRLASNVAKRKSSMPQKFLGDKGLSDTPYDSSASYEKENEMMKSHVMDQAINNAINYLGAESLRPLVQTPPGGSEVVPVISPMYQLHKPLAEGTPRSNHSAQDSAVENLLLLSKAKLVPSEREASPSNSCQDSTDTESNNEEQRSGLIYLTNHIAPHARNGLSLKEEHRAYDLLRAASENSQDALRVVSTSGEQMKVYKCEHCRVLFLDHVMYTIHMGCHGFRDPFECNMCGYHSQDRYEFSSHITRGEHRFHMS
Method: Primary T cells were isolated from human leukocytes (Blood Center of New Jersey, East Orange, N.J.) by centrifugation through FICOLL® centrifugation medium following the ROSETETTESEP™ protocol (Stem Cell Technologies, Vancouver, Canada). Purified T cells were treated with 1 μg/mL PHA-L (Sigma, St. Louis, Mo.) at 37° C. for 24 hours then transfected with either siCRBN or siAiolos (Invitrogen) (200 nM siRNA/100 μL T buffer/8×10^6 cells/shot×5 shots) using NEON® Transfection System (Invitrogen, Grand Island, N.Y.) with program 2100 voltage+15 width+2 pulse. Low GC content siRNA (Invitrogen, Grand Island, N.Y.) was transfected as negative control. Transfected cells were pooled and cultured in OKT3 (3 μg/mL, eBioscience, San Diego, Calif.) coated 10 cm dish with 20 ml RPMI containing 10% FBS at 37° C. for 24 hours. Cells were collected for measuring CRBN or Aiolos knockdown efficiency by western blot (anti-Aiolos: Santa Cruz, sc-10198, lot.C-0212) and qRT-PCR (Applied Biosystem, gene expression CRBN Hs00372271_ml; IKZF3 ID#:Hs00232635_ml). […] Aiolos and Ikaros protein expression was determined by immunoblot analysis using antibodies against Aiolos (Santa Cruz, Dallas, Tex.) and Ikaros (Millipore, Billerica, Mass.). […] Supernatants were harvested and IL-2 protein detected by ELISA (Thermo Scientific, Lafayette, Colo.). […]

Aiolos [3] = assay: Aiolos flow cytometry in B and T cells of healthy volunteers; format: in vivo, human; settings: doses greater than 0.3 mg
Method: Healthy volunteers were administered placebo (n=10) or Compound B at doses of 0.03 mg, 0.1 mg, 0.3 mg, 1 mg, or 2 mg (N=6 each). Blood samples were drawn prior to dosing, or 3 hr, 12 hr, and 24 hr after dosing. 1. Blood samples were lysed and fixed immediately by mixing 1 volume of blood with 20 volumes of 1× Lyse/Fix buffer (BD Biosciences, cat#558049) and mixing thoroughly by inverting the tube several times. This sample mix was incubated in a 37° C. water bath for 10 minutes, and the cells were pelleted by centrifugation at 800×g for 5 minutes to remove the supernatant by aspiration. The cells were washed twice with 2 mL of cold phosphate buffer saline (PBS), then permeabilized by adding 2 mL of cold BD Cytofix/cytoperm buffer and incubated on ice for 15 minutes. The cells were centrifuged then washed twice with BD perm/wash buffer, then resuspended in 40 μL of BD perm/wash buffer. Cells were stained with anti-CD3 or anti-CD19 antibody, and 20 μL of anti-Aiolos Ab (Santa Cruz Santa Cruz, rabbit polyclonal IgG, cat#sc-101982 at 1:200 dilution with staining buffer), or 20 μL of appropriate isotype controls to cells. Cells were mixed thoroughly and incubated at room temperature for 30 minutes in the dark, washed once with BD perm/wash buffer, then resuspended in 80 μL of BD perm/wash buffer, and 20 μL of secondary antibody was added before analysis on a flow cytometer.

SMILES	Ubiquitination of Aiolos peptide containing lysine 203 [1]	Down-regulation of Aiolos (Aiolos [2])	Effect in reducing or inhibiting the expression of Ikaros where CRBN is knocked-down (Ikaros)	Aiolos expression in CD19+ B cells and CD3+ T cells (Aiolos [3])
Nc1cccc2c1C(=O)N(C1CCC(=O)NC1=O)C2=O (stereo not drawn) [pomalidomide, reference compound]	enhance the ubiquitination of Aiolos peptide containing lysine 203	loss of CRBN protein prevents down-regulation of Aiolos	significantly reduced as compared to the control cells with no CRBN knock-down	–
Nc1cccc2c1CN(C1CCC(=O)NC1=O)C2=O (stereo not drawn) [lenalidomide]	enhance the ubiquitination of Aiolos peptide containing lysine 203	–	significantly reduced as compared to the control cells with no CRBN knock-down	–
O=C1CC[C@H](N2Cc3c(OCc4ccc(CN5CCOCC5)cc4)cccc3C2=O)C(=O)N1 [Compound B, 3-(4-((4-(morpholinomethyl)benzyl)oxy)-1-oxoisoindolin-2-yl)piperidine-2,6-dione]	–	–	–	inhibited Aiolos expression at significant levels
